Values quoted from earlier work, collected in paper PMC10851415 (Biochemistry, 2024).

System: influenza
Details: in vivo, po; cited from earlier work

## COC(=O)OCOc1c2n(ccc1=O)N([C@@H]1c3ccccc3SCc3c1ccc(F)c3F)[C@@H]1COCCN1C2=O [BXM, Baloxavir marboxil]
  reduce fever in an average of: 24 h
